Values joined by “and” are separate entries in the source; they are usually repeats but may differ in a detail not shown here. Identical values can stand only once.

Chain of wild-type Epidermal Growth Factor Receptor (EGFR) (P00533 669-1210): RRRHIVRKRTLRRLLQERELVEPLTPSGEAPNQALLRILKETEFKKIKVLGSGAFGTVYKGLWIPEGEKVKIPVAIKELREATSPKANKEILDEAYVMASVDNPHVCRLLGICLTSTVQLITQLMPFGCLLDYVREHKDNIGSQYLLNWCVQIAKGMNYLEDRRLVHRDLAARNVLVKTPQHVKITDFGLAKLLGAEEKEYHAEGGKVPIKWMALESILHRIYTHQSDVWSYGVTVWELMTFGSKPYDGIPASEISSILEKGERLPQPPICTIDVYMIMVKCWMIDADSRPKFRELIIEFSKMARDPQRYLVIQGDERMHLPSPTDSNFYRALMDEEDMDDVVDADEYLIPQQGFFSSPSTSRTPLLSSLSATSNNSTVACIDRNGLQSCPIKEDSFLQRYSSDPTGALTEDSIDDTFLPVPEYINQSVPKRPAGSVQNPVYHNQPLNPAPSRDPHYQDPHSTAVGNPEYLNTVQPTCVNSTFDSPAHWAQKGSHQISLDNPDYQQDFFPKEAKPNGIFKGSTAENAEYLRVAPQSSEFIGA
Chain of CSNK1A1 (P48729 whole entry): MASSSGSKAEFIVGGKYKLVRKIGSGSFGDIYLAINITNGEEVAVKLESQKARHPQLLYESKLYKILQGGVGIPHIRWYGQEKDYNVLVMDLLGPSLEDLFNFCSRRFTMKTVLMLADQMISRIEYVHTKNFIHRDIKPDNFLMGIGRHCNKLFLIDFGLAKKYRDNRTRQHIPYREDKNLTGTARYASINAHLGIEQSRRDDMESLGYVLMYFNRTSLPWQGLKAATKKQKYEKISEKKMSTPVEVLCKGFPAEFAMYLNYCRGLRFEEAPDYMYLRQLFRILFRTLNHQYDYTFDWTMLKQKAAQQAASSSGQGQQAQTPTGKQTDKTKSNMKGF

The first test addresses CSNK1A1 (Homo sapiens (Human), UniProt P48729). As to the kind of experiment: CSNK1A1 Assay 2 (ADP-Glo, 1 μM ATP). The format is biochemical. To be noted: median, read-out: CSNK1A1 Assay 2 IC50 [mol/l] (median). The protocol: CSNK1A1-inhibitory activity of compounds of the present invention in presence of 1 μM adenosine-tri-phosphate (ATP) was quantified employing the CSNK1A1 assay as described in the following paragraphs. In essence, the enzyme activity is measured by quantification of the adenosine-di-phosphate (ADP), which is generated as a co-product of the enzyme reaction, via the “ADP-Glo™ Kinase Assay” kit from the company Promega. This detection system works as follows: In a first step the ATP not consumed in the kinase reaction is quantitatively converted to cAMP employing an adenylate cyclase (“ADP-Glo-reagent”), then the adenylate cyclase is stopped and the ADP generated in the kinase reaction converted to ATP which generates in a luciferase-based reaction a glow-luminescence signal (“Kinase Detection Reagent”).
As substrate for the kinase reaction the biotinylated peptide biotin-Ahx-KRRRAL-pS-VASLPGL (C-terminus in amide form) was used which can be purchased e.g. from the company Biosyntan (Berlin-Buch, Germany).
For the assay 50 nl of a 100 fold concentrated solution of the test compound in DMSO was pipetted into a white 1536-well microtiter plate (Greiner Bio-One, Frickenhausen, Germany), 2 μL of a solution of CSNK1A1 in aqueous assay buffer [50 mM HEPES pH 7.5, 10% (v/v) glycerol, 10 mM MgCl2, 50 mM NaCl, 1 mM dithiothreitol, 0.01% (w/v) bovine serum albumin, 0.01% (v/v) Triton X-100] were added and the mixture was incubated for 15 min at 22° C. to allow pre-binding of the test compounds to the enzyme before the start of the kinase reaction. […] The concentration of CSNK1A1 was adjusted depending of the activity of the enzyme lot and was chosen appropriate to have the assay in the linear range, a typical concentrations are about 0.0375 ng/μL. The reaction was stopped by the addition of 2.5 μL of “ADP-Glo-reagent” (1:1.5 fold diluted with water) and the resulting mixture was incubated at 22° C. for 1 h to convert the ATP not consumed in the kinase reaction completely […]. Subsequently 2.5 μL of the “kinase detection reagent” (1.2 fold more concentrated than recommended by the producer) were added, the resulting mixture was incubated at 22° C. for 1 h and then the luminescence measured with a suitable measurement instrument (e.g. Viewlux™ from Perkin-Elmer). The amount of emitted light was taken as a measure for the amount of ADP generated and thereby for the activity of the CSNK1A1.
On the technique in general: In ADP-Glo the light output rises with the ADP produced.
As for `O=C(Nc1cc(-c2[nH]c3cc[nH]c(=O)c3c2-c2ccccc2)ccn1)C(CC(F)F)c1ccc(F)cc1` (racemic) [Example 76, 4,4-difluoro-2-(4-fluorophenyl)-N-[4-(4-oxo-3-phenyl-4,5-dihydro-1H-pyrrolo[3,2-c]pyridin-2-yl)pyridin-2-yl]butanamide], the IC50 came out at 2 nM.

The target in the next test is wild-type Epidermal Growth Factor Receptor (EGFR) (Homo sapiens (Human), UniProt P00533). Put plainly: WT-EGFR Kinase Assay (TR-FRET, 2 mM ATP). The class given is biochemical. The settings on record: EGFR Wildtyp 2 mM ATP IC50 [mol/l] (median), median or individual measurements. An excerpt:
Inhibitory activity of compounds of the present invention against wild-type Epidermal Growth Factor Receptor (EGFR) was quantified employing the TR-FRET based EGFR assay as described in the following paragraphs.
Recombinant fusion protein of N-terminal Glutathion-S-Transferase (GST) and a fragment of human EGFR (amino acids R669 to A1210), expressed in Sf9 insect cells and purified via affinity chromatography using Glutathion Sepharose as described above, was used as kinase. As substrate for the kinase reaction the biotinylated peptide biotin-Ahx-[…] (C-terminus in amide form) was used which can be purchased e.g. form the company Biosynthan GmbH (Berlin-Buch, Germany).
For the assay 50 nl of a 100 fold concentrated solution of the test compound in DMSO was pipetted into either a black low volume 384 well microtiter plate or a black 1536 well microtiter plate (both Greiner Bio-One, Frickenhausen, Germany), 2 μL of a solution of EGFR in aqueous assay buffer [50 mM Hepes pH 7.0, 10 mM MgCl2, 1 mM dithiothreitol, 0.5 mM EGTA, 0.3 mM activated sodium ortho-vanadate, 0.005% (w/v) bovine serum albumin, 0.005% (v/v) Tween-20] were added and the mixture was incubated for 15 min at 22° C. to allow pre-binding of the test compounds to the enzyme before the start of the kinase reaction. […] The concentration of EGFR was adjusted depending of the activity of the enzyme lot and was chosen appropriate to have the assay in the linear range, typical concentration was […]. The reaction was stopped by the addition of 3 μL of a solution of HTRF detection reagents (83.3 nM streptavidine-XL665 [Cisbio Bioassays, Codolet, France] and 1.67 nM PT66-Tb-Cryptate, a terbium-cryptate labelled anti-phospho-tyrosine antibody from Cisbio Bioassays [instead of the PT66-Tb-cryptate PT66-Eu-Chelate from Perkin Elmer can also be used]) in an aqueous EDTA-solution (133.3 mM EDTA, 0.2% (w/v) bovine serum albumin in 50 mM HEPES pH 7.5).
The resulting mixture was incubated 1 h at 22° C. to allow the binding of the biotinylated phosphorylated peptide to the streptavidine-XL665 and the PT66-Tb-Cryptate. Subsequently the amount of phosphorylated substrate was evaluated by measurement of the resonance energy transfer from the PT66-Tb-Cryptate to the streptavidine-XL665. Therefore, the fluorescence emissions at 620 nm and 665 nm after excitation at 337 nm were measured in a HTRF reader, e.g. a Pherastar (BMG Labtechnologies, Offenburg, Germany) or a Viewlux (Perkin-Elmer). The ratio of the emissions at 665 nm and at 622 nm was taken as the measure for the amount of phosphorylated substrate.
(In general: In TR-FRET formats the signal depends on donor and acceptor labels being close together.)
Consider `O=C(Nc1cc(-c2[nH]c3cc[nH]c(=O)c3c2-c2ccccc2)ccn1)C(CC(F)F)c1ccc(F)cc1` (racemic) [Example 76, 4,4-difluoro-2-(4-fluorophenyl)-N-[4-(4-oxo-3-phenyl-4,5-dihydro-1H-pyrrolo[3,2-c]pyridin-2-yl)pyridin-2-yl]butanamide], for which the IC50 is more than 20 µM.

In turn, `Cn1cc(CC2CC2)c2[nH]c(-c3ccnc(NC(=O)C(CC(F)F)c4ccc(F)cc4)c3)c(-c3ccccc3)c2c1=O` (racemic) [Example 060, N-{4-[7-(cyclopropylmethyl)-5-methyl-4-oxo-3-phenyl-4,5-dihydro-1H-pyrrolo[3,2-c]pyridin-2-yl]pyridin-2-yl}-4,4-difluoro-2-(4-fluorophenyl)butanamide] gave an IC50 of more than 20 µM.

`CN1CCc2[nH]c(-c3ccnc(NC(=O)C(CC(F)F)c4ccc(F)cc4)c3)c(-c3ccccc3)c2C1=O` (racemic) [Example 002, 4,4-difluoro-2-(4-fluorophenyl)-N-[4-(5-methyl-4-oxo-3-phenyl-4,5,6,7-tetrahydro-1H-pyrrolo[3,2-c]pyridin-2-yl)pyridin-2-yl]butanamide] came in with an IC50 of more than 20 µM.

For the compound `CC(C(=O)Nc1cc(-c2[nH]c3c(CC(F)(F)F)cn(C)c(=O)c3c2-c2ccccc2)ccn1)c1ccc(F)cc1` (racemic) [Example 014, 2-(4-fluorophenyl)-N-{4-[5-methyl-4-oxo-3-phenyl-7-(2,2,2-trifluoroethyl)-4,5-dihydro-1H-pyrrolo[3,2-c]pyridin-2-yl]pyridin-2-yl}propanamide], the IC50 is more than 20 µM.

In the case of `Cn1cc(CC(F)(F)F)c2[nH]c(-c3ccnc(NC(=O)C(CC(F)F)c4ccc(F)cc4)c3)c(-c3ccccc3)c2c1=O` (racemic) [Example 018, 4,4-difluoro-2-(4-fluorophenyl)-N-{4-[5-methyl-4-oxo-3-phenyl-7-(2,2,2-trifluoroethyl)-4,5-dihydro-1H-pyrrolo[3,2-c]pyridin-2-yl]pyridin-2-yl}butanamide], the IC50 was more than 20 µM.

As for `Cn1ccc2[nH]c(-c3ccnc(NC(=O)C(CC(F)F)c4ccc(F)cc4)c3)c(-c3ccccc3)c2c1=O` (single isomer, unassigned) [Example 007, 4,4-difluoro-2-(4-fluorophenyl)-N-[4-(5-methyl-4-oxo-3-phenyl-4,5-dihydro-1H-pyrrolo[3,2-c]pyridin-2-yl)pyridin-2-yl]butanamide], the IC50 was 11.8 µM and 13.4 µM.

`CC(C(=O)Nc1cc(-c2[nH]c3c(CC(F)(F)F)cn(C)c(=O)c3c2-c2ccccc2)ccn1)c1ccc(F)cc1` (single isomer, unassigned; (-)) [Example 016, (-)-2-(4-fluorophenyl)-N-{4-[5-methyl-4-oxo-3-phenyl-7-(2,2,2-trifluoroethyl)-4,5-dihydro-1H-pyrrolo[3,2-c]pyridin-2-yl]pyridin-2-yl}propanamide] had an IC50 of more than 20 µM.

As for `CN1CC(CC2CC2)c2[nH]c(-c3ccnc(NC(=O)Cc4ccc(F)cc4)c3)c(-c3ccc(F)cc3)c2C1=O` (racemic) [Example 061, N-{4-[7-(cyclopropylmethyl)-3-(4-fluorophenyl)-5-methyl-4-oxo-4,5,6,7-tetrahydro-1H-pyrrolo[3,2-c]pyridin-2-yl]pyridin-2-yl}-2-(4-fluorophenyl)acetamide], the IC50 came out at 0.818 µM.

`CC(C(=O)Nc1cc(-c2[nH]c3c(CC4CC4)cn(C)c(=O)c3c2-c2ccc(F)cc2)ccn1)c1ccc(F)cc1` (racemic) [Example 063, N-{4-[7-(cyclopropylmethyl)-3-(4-fluorophenyl)-5-methyl-4-oxo-4,5-dihydro-1H-pyrrolo[3,2-c]pyridin-2-yl]pyridin-2-yl}-2-(4-fluorophenyl)propanamide] showed an IC50 of more than 20 µM.

The compound `CN1C(=O)c2c([nH]c(-c3ccnc(NC(=O)C(CC(F)F)c4ccc(F)cc4)c3)c2-c2ccccc2)CC12CCC2` (single isomer, unassigned; (+)) [Example 051, (+)-4,4-difluoro-2-(4-fluorophenyl)-N-[4-(5′-methyl-4′-oxo-3′-phenyl-1′,4′,5′,7′-tetrahydrospiro-[cyclobutane-1,6′-pyrrolo[3,2-c]pyridin]-2′-yl)pyridin-2-yl]butanamide] had an IC50 of 3.2 µM.

The compound `Cn1cc(CC(F)(F)F)c2[nH]c(-c3ccnc(NC(=O)C(CC(F)F)c4ccc(F)cc4)c3)c(-c3ccc(F)cc3)c2c1=O` (single isomer, unassigned) [Example 027, 4,4-difluoro-2-(4-fluorophenyl)-N-{4-[3-(4-fluorophenyl)-5-methyl-4-oxo-7-(2,2,2-trifluoroethyl)-4,5-dihydro-1H-pyrrolo[3,2-c]pyridin-2-yl]pyridin-2-yl}butanamide] came in with an IC50 of more than 20 µM.

The same test, now with this note: read-out: EGFR Wildtyp 2 mM ATP IC50 [mol/l] (median), median or individual measurements.
For `CC1(C)CNC(=O)c2c1[nH]c(-c1ccnc(NC(=O)Cc3ccc(F)cc3)c1)c2-c1ccccc1` [Example 042, N-[4-(7,7-dimethyl-4-oxo-3-phenyl-4,5,6,7-tetrahydro-1H-pyrrolo[3,2-c]pyridin-2-yl)pyridin-2-yl]-2-(4-fluorophenyl)acetamide], the IC50 came out at 5.6 µM.

For `CN1CCc2[nH]c(-c3ccnc(NC(=O)Cc4ccc(F)cc4)c3)c(-c3cccnc3)c2C1=O` [Example 012, 2-(4-fluorophenyl)-N-{4-[5-methyl-4-oxo-3-(pyridin-3-yl)-4,5,6,7-tetrahydro-1H-pyrrolo[3,2-c]pyridin-2-yl]pyridin-2-yl}acetamide], the IC50 was more than 20 µM.

The values are drawn from patent publication US20230322767A1, “ARYL SUBSTITUTED PYRROLO-PYRIDINONES AND THERAPEUTIC USES THEREOF” (Bayer Aktiengesellschaft, priority 2020, published 2023).
